US8669247B2, “2,5-disubstituted arylsulfonamide CCR3 antagonists” (Axikin Pharmaceuticals, Inc., priority 2009, dated 2014)
Counter-ions that a name gives are not always drawn.

Legend:
CCR3 receptor = target: T1, CCR3 receptor (UniProt P51677); assay: CCR3 Receptor Binding Assay ([125I]-labeled human eotaxin/CCL11 displacement on cells)
T1 sequence (P51677 1-355): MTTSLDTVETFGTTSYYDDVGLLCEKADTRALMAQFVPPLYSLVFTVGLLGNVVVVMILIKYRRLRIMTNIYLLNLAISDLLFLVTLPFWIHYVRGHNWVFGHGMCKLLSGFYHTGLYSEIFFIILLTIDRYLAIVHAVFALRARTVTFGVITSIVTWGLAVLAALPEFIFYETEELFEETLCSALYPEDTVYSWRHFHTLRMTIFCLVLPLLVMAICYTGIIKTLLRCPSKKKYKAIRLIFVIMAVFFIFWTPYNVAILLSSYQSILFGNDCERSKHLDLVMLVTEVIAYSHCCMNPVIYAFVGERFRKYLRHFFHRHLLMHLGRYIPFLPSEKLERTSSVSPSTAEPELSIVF
Procedure: Cells were washed once with PBS and resuspended in a binding buffer (25 mM HEPES pH 7.6, 5 mM MgCl2, 1 mM CaCl2, 0.5% BSA, 0.1% NaN3), […] of cell suspension (2×10^5 cells/well) and 0.1 nM [^125I]-labeled human eotaxin/CCL11 (2000 Ci/mmol specific activity) were mixed in a 96-well U-bottom polypropylene plate, and incubated for 60 min at room temperature for the binding reaction. The cell suspension was then transferred to a filtration plate (#MAFB, Millipore), and washed 3 times with the binding buffer containing 0.5 M NaCl, scintillant added, and the radioactivity was counted on a TopCount (Packard). For the determination of non-specific binding, the cell suspension and [^125I]-labeled human eotaxin/CCL11 were incubated in the presence of 500 nM of unlabeled human eotaxin/CCL11. See, lino et al., “Molecular cloning and functional characterization of cynomolgus monkey (Macaca fascicularis) CC chemokine receptor, CCR3,” Cytokine 2002, 19, 276-286.

[1] = Free (free form of the compound)
[2] = HCl: hydrochloric acid salt of the corresponding compound

| Ki (CCR3 receptor; [1]) [nM] | melting point [°C] | Ki (CCR3 receptor; [2]) [nM] | SMILES |
| --- | --- | --- | --- |
| 100 to 500 | 216 to 219 | – | N#Cc1ccc(Sc2cc(Cl)ccc2Cl)c(S(=O)(=O)N2CCOCC2)c1 [Compound 82, 4-(2,5-Dichlorophenylthio)-3-(morpholinosulfonyl)benzonitrile] |
| 10 to 25 | 150 to 153 | – | O=[N+]([O-])c1ccc(Sc2cc(Cl)ccc2Cl)c(S(=O)(=O)N2CCNCC2)c1 [Compound 123, 1-(2-(2,5-Dichlorophenylthio)-5-nitrophenylsulfonyl)piperazine] |
| – | 125 to 143 | – | N#Cc1ccc(Oc2cc(F)ccc2F)c(S(=O)(=O)N2CCNCC2)c1 (as salt: hydrochloride) [Compound 52, 4-(2,5-Difluorophenoxy)-3-(piperazin-1-ylsulfonyl)benzonitrile] |
| – | 157 to 159 | – | CC1CN(S(=O)(=O)c2cc(C#N)ccc2Oc2cc(F)ccc2F)CC(C)N1 (stereo not drawn) (as salt: hydrochloride) [Compound 53, 4-(2,5-Difluorophenoxy)-3-(3,5-dimethylpiperazin-1-ylsulfonyl)benzonitrile] |
| – | 179 to 182 | – | CC(C)N1CCN(S(=O)(=O)c2cc(C#N)ccc2Oc2cc(F)ccc2F)CC1 (as salt: hydrochloride) [Compound 54, 4-(2,5-Difluorophenoxy)-3-(4-isopropylpiperazin-1-ylsulfonyl)benzonitrile] |
| – | 176 to 180 | – | CC1CN(S(=O)(=O)c2cc(C#N)ccc2Sc2cc(Cl)ccc2Cl)CC(C)N1 (stereo not drawn) (as salt: hydrochloride) [Compound 79, 4-(2,5-Dichlorophenylthio)-3-(3,5-dimethylpiperazin-1-ylsulfonyl)benzonitrile] |
| ≤ 10 | – | – | CC(C)N1CCN(S(=O)(=O)c2cc([N+](=O)[O-])ccc2Oc2cc(Cl)ccc2Cl)CC1 [Compound 107, 1-(2-(2,5-Dichlorophenoxy)-5-nitrophenylsulfonyl)-4-isopropylpiperazine] |
| 25 to 100 | – | – | CC1CN(S(=O)(=O)c2cc(C#N)ccc2Oc2cc(F)ccc2F)CC(C)N1 (stereo not drawn) [Compound 53, 4-(2,5-Difluorophenoxy)-3-(3,5-dimethylpiperazin-1-ylsulfonyl)benzonitrile] |
| 25 to 100 | – | 100 to 500 | Cc1ccc(C)c(Sc2ccc(C#N)cc2S(=O)(=O)N2CCN(C(C)C)CC2)c1 [Compound 67, 4-(2,5-Dimethylphenylthio)-3-(4-isopropylpiperazin-1-ylsulfonyl)benzonitrile] |
| 25 to 100 | – | 25 to 100 | CCC(CC)N1CCN(S(=O)(=O)c2cc(C#N)ccc2Sc2cc(Cl)ccc2Cl)CC1 [Compound 78, 4-(2,5-Dichlorophenylthio)-3-(4-(pentan-3-yl)piperazin-1-ylsulfonyl)-benzonitrile] |
| – | – | ≤ 10 | Cc1ccc(C)c(Sc2ccc([N+](=O)[O-])cc2S(=O)(=O)N2CCC(N3CCCC3)CC2)c1 [Compound 75, 1-(2-(2,5-Dimethylphenylthio)-5-nitrophenylsulfonyl)-4-(pyrrolidin-1-yl)piperidine] |
| ≤ 10 | – | – | O=C1CN(S(=O)(=O)c2cc([N+](=O)[O-])ccc2Sc2cc(Cl)ccc2Cl)CCN1 [Compound 124, 4-(2-(2,5-Dichlorophenylthio)-5-nitrophenylsulfonyl)piperazin-2-one] |
| ≤ 10 | – | – | Cc1ccc(C)c(Sc2ccc(C#N)cc2S(=O)(=O)N2CC(C)NC(C)C2)c1 (stereo not drawn) [Compound 66, 4-(2,5-Dimethylphenylthio)-3-(3,5-dimethylpiperazin-1-ylsulfonyl)-benzonitrile] |
| 100 to 500 | – | – | CC(C)(O)C1CCN(S(=O)(=O)c2cc(C#N)ccc2Oc2cc(Cl)ccc2Cl)CC1 [Compound 97, 4-(2,5-Dichlorophenoxy)-3-(4-(2-hydroxypropan-2-yl)piperidin-1-ylsulfonyl)benzonitrile] |
| > 5 | – | 25 to 100 | O=[N+]([O-])c1ccc(Oc2cc(Cl)ccc2Cl)c(S(=O)(=O)N2CCNCC2)c1 [Compound 147, 1-(2-(2,5-Dichlorophenoxy)-5-nitrophenylsulfonyl)piperazine] |
| – | – | > 5 | Cc1ccc(C)c(Oc2ccc([N+](=O)[O-])cc2S(=O)(=O)N2CCNCC2)c1 [Compound 148, 1-(2-(2,5-Dimethylphenoxy)-5-nitrophenylsulfonyl)piperazine] |
| 100 to 500 | – | – | Cc1ccc(C)c(Sc2ccc(C#N)cc2S(=O)(=O)N2CCCN(C)CC2)c1 [Compound 70, 4-(2,5-Dimethylphenylthio)-3-(4-methyl-1,4-diazepan-1-ylsulfonyl)benzonitrile] |

| Ki (CCR3 receptor; [1]) [nM] | melting point [°C] | Ki (CCR3 receptor; [2]) [nM] | SMILES |
| --- | --- | --- | --- |
| > 5 | – | – | Cc1ccc(C)c(Sc2ccc([N+](=O)[O-])cc2S(=O)(=O)N2CC(C)NC(C)C2)c1 (stereo not drawn) [Compound 105, 1-(2-(2,5-Dimethylphenylthio)-5-nitrophenylsulfonyl)-3,5-dimethylpiperazine] |
| – | – | > 5 | CCN(CC)CCNS(=O)(=O)c1cc(C#N)ccc1Oc1cc(F)ccc1F [Compound 62, 5-Cyano-N-(2-(diethylamino)ethyl)-2-(2,5-difluorophenoxy)benzenesulfonamide] |
| ≤ 10 | – | – | O=[N+]([O-])c1ccc(Oc2cc(Cl)ccc2Cl)c(S(=O)(=O)N2CCN(C3CCCCC3)CC2)c1 [Compound 119, 1-Cyclohexyl-4-(2-(2,5-dichlorophenoxy)-5-nitrophenylsulfonyl)piperazine] |
| ≤ 10 | – | ≤ 10 | N#Cc1ccc(Sc2cc(Cl)ccc2Cl)c(S(=O)(=O)N2CCNCC2)c1 [Compound 76, 4-(2,5-Dichlorophenylthio)-3-(piperazin-1-ylsulfonyl)benzonitrile] |
| – | – | 25 to 100 | CC(C)N1CCCN(S(=O)(=O)c2cc(C#N)ccc2Oc2cc(Cl)ccc2Cl)CC1 [Compound 98, 4-(2,5-Dichlorophenoxy)-3-(4-isopropyl-1,4-diazepan-1-ylsulfonyl)benzonitrile] |
| 10 to 25 | – | – | CCCC(C)N1CCN(S(=O)(=O)c2cc(C#N)ccc2Oc2cc(Cl)ccc2Cl)CC1 (stereo not drawn) [Compound 90, 4-(2,5-Dichlorophenoxy)-3-(4-(pentan-2-yl)piperazin-1-ylsulfonyl)-benzonitrile] |
| > 5 | – | – | CN1CCN(S(=O)(=O)c2cc([N+](=O)[O-])ccc2Sc2cc(Cl)ccc2Cl)CC1 [Compound 133, 1-(2-(2,5-Dichlorophenylthio)-5-nitrophenylsulfonyl)-4-methylpiperazine] |
| 10 to 25 | – | – | CCC(CC)N1CCN(S(=O)(=O)c2cc(C#N)ccc2Oc2cc(Cl)ccc2Cl)CC1 [Compound 89, 4-(2,5-Dichlorophenoxy)-3-(4-(pentan-3-yl)piperazin-1-ylsulfonyl)-benzonitrile] |
| 10 to 25 | – | – | O=[N+]([O-])c1ccc(Sc2cc(Cl)ccc2Cl)c(S(=O)(=O)N2CCN(C3CCCCC3)CC2)c1 [Compound 118, 1-Cyclohexyl-4-(2-(2,5-dichlorophenylthio)-5-nitrophenylsulfonyl)piperazine] |
| ≤ 10 | – | ≤ 10 | N#Cc1ccc(Sc2cc(Cl)ccc2Cl)c(S(=O)(=O)N2CCC(N3CCCC3)CC2)c1 [Compound 84, 4-(2,5-Dichlorophenylthio)-3-(4-(pyrrolidin-1-yl)piperidin-1-ylsulfonyl)benzonitrile] |
| > 5 | – | – | CCCCc1nc(Cl)c2n1C(=O)N(C1CCN(S(=O)(=O)c3cc(C#N)ccc3Oc3cc(Cl)ccc3Cl)CC1)C2 [Compound 93, 3-(4-(5-Butyl-7-chloro-3-oxo-1H-imidazo[1,5-c]imidazol-2(3H)-yl)piperidin-1-ylsulfonyl)-4-(2,5-dichlorophenoxy)benzonitrile] |
| 10 to 25 | – | ≤ 10 | Cc1ccc(C)c(Sc2ccc(C#N)cc2S(=O)(=O)N2CCC(N3CCCC3)CC2)c1 [Compound 74, 4-(2,5-Dimethylphenylthio)-3-(4-(pyrrolidin-1-yl)piperidin-1-ylsulfonyl)-benzonitrile] |
| ≤ 10 | – | ≤ 10 | CC1CN(S(=O)(=O)c2cc(C#N)ccc2Sc2cc(Cl)ccc2Cl)CC(C)N1 (stereo not drawn) [Compound 79, 4-(2,5-Dichlorophenylthio)-3-(3,5-dimethylpiperazin-1-ylsulfonyl)benzonitrile] |
| > 5 | – | – | CC1CN(S(=O)(=O)c2cc([N+](=O)[O-])ccc2Sc2cc(Cl)ccc2Cl)CC(C)N1 (stereo not drawn) [Compound 103, 1-(2-(2,5-Dichlorophenylthio)-5-nitrophenylsulfonyl)-3,5-dimethylpiperazine] |
| > 5 | – | > 5 | N#Cc1ccc(Oc2cc(F)ccc2F)c(S(=O)(=O)N2CCC(N3CCCC3)CC2)c1 [Compound 60, 4-(2,5-Difluorophenoxy)-3-(4-(pyrrolidin-1-yl)piperidin-1-ylsulfonyl)benzonitrile] |
| > 5 | – | – | Cc1ccc(C)c(Sc2ccc(C#N)cc2S(=O)(=O)N2CCNCC2)c1 [Compound 65, 4-(2,5-Dimethylphenylthio)-3-(piperazin-1-ylsulfonyl)benzonitrile] |
| > 5 | – | > 5 | CN(C)C1CCN(S(=O)(=O)c2cc(C#N)ccc2Oc2cc(F)ccc2F)CC1 [Compound 59, 4-(2,5-Difluorophenoxy)-3-(4-(dimethylamino)piperidin-1-ylsulfonyl)benzonitrile] |
